The target in the experiment is thrombin (Homo sapiens, UniProt P00734). Briefly: standard in vitro assays of thrombin inhibitory activity and selectivity. Format: biochemical. The settings on record: standard in vitro assays designed to measure inhibitory activity and selectivity toward thrombin versus other proteases.

Regarding “BnSO2-7Lac—G—R(.TFA)(CO))—Gly—OEt [16-5]”, the thrombin inhibitory activity result is reported as “thrombin inhibitory activity”.

For the origin of these results see patent US6376649B1, “Methods for the synthesis of α- hydroxy-β-amino acid and amide derivatives” (Corvas International, Inc., priority 1998, dated 2002).
